{"source": "ChEMBL document CHEMBL1124198", "about": "“Potential inhibitors of S-adenosylmethionine-dependent methyltransferases. 11. Molecular dissections of neplanocin A as potential inhibitors of S-adenosylhomocysteine hydrolase” (J Med Chem, 1988)", "key": {"Adenosylhomocysteinase [1]": {"target": "T1, Adenosylhomocysteinase (Homo sapiens, UniProt P23526)", "T1 sequence (P23526 whole entry)": "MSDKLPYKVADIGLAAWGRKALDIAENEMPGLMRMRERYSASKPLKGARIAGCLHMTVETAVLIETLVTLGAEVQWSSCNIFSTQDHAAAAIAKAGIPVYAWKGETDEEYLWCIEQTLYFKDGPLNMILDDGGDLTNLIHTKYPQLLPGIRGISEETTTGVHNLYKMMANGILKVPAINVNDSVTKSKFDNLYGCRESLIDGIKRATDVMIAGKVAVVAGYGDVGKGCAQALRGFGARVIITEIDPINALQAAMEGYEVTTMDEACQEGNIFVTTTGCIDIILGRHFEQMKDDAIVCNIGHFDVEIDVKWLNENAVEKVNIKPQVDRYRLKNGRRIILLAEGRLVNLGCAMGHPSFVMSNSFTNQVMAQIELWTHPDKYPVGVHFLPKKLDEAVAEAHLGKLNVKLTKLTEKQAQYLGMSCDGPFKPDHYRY"}, "Vaccinia virus": {"test_system": "Vaccinia virus", "details": "l929; call rule not given here"}, "Adenosylhomocysteinase [2]": {"target": "T1, Adenosylhomocysteinase", "remark": "listed apart in the source"}, "Adenosylhomocysteinase [3]": {"target": "Adenosylhomocysteinase (Mus musculus, UniProt P50247)", "sequence (P50247 whole entry)": "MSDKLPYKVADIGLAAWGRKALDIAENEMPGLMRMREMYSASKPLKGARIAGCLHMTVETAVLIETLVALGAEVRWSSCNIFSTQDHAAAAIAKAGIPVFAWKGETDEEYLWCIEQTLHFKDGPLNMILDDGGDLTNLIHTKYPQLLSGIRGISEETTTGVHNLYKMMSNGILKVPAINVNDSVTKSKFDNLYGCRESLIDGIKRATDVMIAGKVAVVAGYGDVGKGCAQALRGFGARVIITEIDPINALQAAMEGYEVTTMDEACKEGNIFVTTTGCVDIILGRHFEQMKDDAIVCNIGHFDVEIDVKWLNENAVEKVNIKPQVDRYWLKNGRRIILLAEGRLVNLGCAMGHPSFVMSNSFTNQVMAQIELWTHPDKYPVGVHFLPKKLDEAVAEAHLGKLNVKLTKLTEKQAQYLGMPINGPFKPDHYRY", "test": "biochemical"}}, "data": [{"smiles": "Nc1ncnc2c1ncn2C/C=C(/CO)[C@@H](O)CO.Nc1ncnc2c1ncn2C/C=C(\\CO)[C@@H](O)CO", "values": [{"measurement": "IC50", "setting": "Adenosylhomocysteinase [1]", "value": "Not Active"}, {"measurement": "IC50", "setting": "Vaccinia virus", "value": 170, "unit": "µM"}]}, {"smiles": "C/C(=C\\Cn1cnc2c(N)ncnc21)CO", "values": [{"measurement": "IC50", "setting": "Adenosylhomocysteinase [1]", "value": "Not Active"}, {"measurement": "IC50", "setting": "Vaccinia virus", "value": 300, "unit": "µM"}]}, {"smiles": "Nc1ncnc2c1ncn2C/C=C/C(O)CO", "note": "(configuration not stated)", "values": [{"measurement": "Ki", "setting": "Adenosylhomocysteinase [2]", "value": "Not Active"}, {"measurement": "IC50", "setting": "Vaccinia virus", "value": 250, "unit": "µM"}]}, {"smiles": "Nc1nccc2c1ncn2C/C=C\\[C@@H](O)CO", "values": [{"measurement": "IC50", "setting": "Adenosylhomocysteinase [3]", "value": 61, "unit": "µM"}, {"measurement": "IC50", "setting": "Adenosylhomocysteinase [1]", "value": "Not Active"}, {"measurement": "IC50", "setting": "Vaccinia virus", "value": 70, "unit": "µM"}]}, {"smiles": "CC(C)=CCn1cnc2c(N)ncnc21", "values": [{"measurement": "Ki", "setting": "Adenosylhomocysteinase [2]", "value": "Not Active"}, {"measurement": "IC50", "setting": "Vaccinia virus", "value": 60, "unit": "µM"}]}, {"smiles": "C/C(=C/Cn1cnc2c(N)ncnc21)CO", "values": [{"measurement": "IC50", "setting": "Adenosylhomocysteinase [3]", "value": 200, "unit": "µM"}, {"measurement": "IC50", "setting": "Adenosylhomocysteinase [1]", "value": "Not Active"}, {"measurement": "IC50", "setting": "Vaccinia virus", "value": 220, "unit": "µM"}]}, {"smiles": "Nc1ncnc2c1ncn2C/C=C\\[C@@H](O)CO", "values": [{"measurement": "IC50", "setting": "Adenosylhomocysteinase [3]", "value": 100, "unit": "µM"}, {"measurement": "IC50", "setting": "Adenosylhomocysteinase [1]", "value": "Not Active"}, {"measurement": "IC50", "setting": "Vaccinia virus", "value": 100, "unit": "µM"}]}, {"smiles": "Nc1ncnc2c1ncn2C/C=C\\CO", "values": [{"measurement": "IC50", "setting": "Adenosylhomocysteinase [3]", "value": 145, "unit": "µM"}, {"measurement": "IC50", "setting": "Adenosylhomocysteinase [1]", "value": "Not Active"}, {"measurement": "IC50", "setting": "Vaccinia virus", "value": 108, "unit": "µM"}]}, {"smiles": "Nc1ncnc2c1ncn2CC#CCO", "values": [{"measurement": "Ki", "setting": "Adenosylhomocysteinase [2]", "value": "Not Active"}, {"measurement": "IC50", "setting": "Vaccinia virus", "value": "> 320", "unit": "µM"}]}, {"smiles": "Nc1nccc2c1ncn2CC#CCO", "values": [{"measurement": "IC50", "setting": "Adenosylhomocysteinase [3]", "value": 200, "unit": "µM"}, {"measurement": "IC50", "setting": "Adenosylhomocysteinase [1]", "value": "Not Active"}, {"measurement": "IC50", "setting": "Vaccinia virus", "value": 300, "unit": "µM"}]}, {"smiles": "Nc1nccc2c1ncn2C/C=C\\CO", "values": [{"measurement": "IC50", "setting": "Adenosylhomocysteinase [3]", "value": 200, "unit": "µM"}, {"measurement": "IC50", "setting": "Adenosylhomocysteinase [1]", "value": "Not Active"}, {"measurement": "IC50", "setting": "Vaccinia virus", "value": 300, "unit": "µM"}]}, {"smiles": "Nc1ncnc2c1ncn2CC=C(CO)CO", "values": [{"measurement": "IC50", "setting": "Adenosylhomocysteinase [3]", "value": 65, "unit": "µM"}, {"measurement": "IC50", "setting": "Adenosylhomocysteinase [1]", "value": "Not Active"}, {"measurement": "IC50", "setting": "Vaccinia virus", "value": 700, "unit": "µM"}]}, {"smiles": "Nc1ncnc2c1ncn2C/C=C/CO", "values": [{"measurement": "IC50", "setting": "Adenosylhomocysteinase [3]", "value": 230, "unit": "µM"}, {"measurement": "IC50", "setting": "Adenosylhomocysteinase [1]", "value": "Not Active"}, {"measurement": "IC50", "setting": "Vaccinia virus", "value": 109, "unit": "µM"}]}, {"smiles": "Nc1nccc2c1ncn2C/C=C/CO", "values": [{"measurement": "Ki", "setting": "Adenosylhomocysteinase [2]", "value": "Not Active"}, {"measurement": "IC50", "setting": "Vaccinia virus", "value": 40, "unit": "µM"}]}, {"smiles": "Nc1nccc2c1ncn2CC=C(CO)CO", "values": [{"measurement": "IC50", "setting": "Adenosylhomocysteinase [3]", "value": 110, "unit": "µM"}, {"measurement": "IC50", "setting": "Adenosylhomocysteinase [1]", "value": "Not Active"}, {"measurement": "IC50", "setting": "Vaccinia virus", "value": 500, "unit": "µM"}]}, {"smiles": "Nc1ncnc2c1ncn2[C@@H]1C=C(CO)[C@@H](O)[C@H]1O", "note": "[NEOPLANOCIN A]", "values": [{"measurement": "IC50", "setting": "Adenosylhomocysteinase [3]", "value": 0.05, "unit": "µM"}, {"measurement": "IC50", "setting": "Adenosylhomocysteinase [1]", "value": "Not Active"}, {"measurement": "IC50", "setting": "Vaccinia virus", "value": 0.08, "unit": "µM"}]}]}
